The results in this text go back to PubChem BioAssay AID2393 (NMMLSC, 2010).

Active and inactive are the calls of the source.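 The calls were made as follows: active = none, because compounds meeting the potency rule were filed inconclusive for hitting several proteins; inconclusive = EC50 under 20 µM with over 15% binding change; inactive = the rest.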

Assay in all cases: small GTPase panel, fluorescent GTP binding blockade – biochemical, Mg buffer, constant GTP, RhoA, Rac1, Cdc42, mechanism study for Ras-family GTPase inhibitor project, profiling panel (AID 2393);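 as to EC50: EC50 marks half change in GTP binding and may reflect gain or loss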
Settings in all cases: GST-GTPase beads, BODIPY-GTP binding, flow cytometry; for GTP binding remaining (% of DMSO): at 100 µM (top of the series)
On the technique in general: In flow cytometry, cells or beads pass a laser one at a time.

Assay [1] addresses Ras-related C3 botulinum toxin substrate 1 (Homo sapiens) (UniProt P63000).
Assay [2] has as its target Transforming protein RhoA (Homo sapiens) (UniProt P61586).
Assay [3] deals with Cell division control protein 42 homolog (Homo sapiens) (UniProt P60953).

As for `COc1ccc(-c2ccc(CCC(=O)N3CCN(c4cc(C)ccc4C)CC3)[nH]2)cc1`, the “GTP binding remaining (% of DMSO)” value in assay [1] (Rac1ACT), in assay [1] (Rac1WT), in assay [2] (RhoACT), in assay [2] (RhoWT), in assay [3] (Cdc42ACT) and in assay [3] (Cdc42WT) was “inactive” each time.
For the compound `Cc1ccccc1C1CC(c2ccccc2)=NN1c1ccc(S(N)(=O)=O)cc1` (configuration not stated), the “GTP binding remaining (% of DMSO)” value in assay [1] (Rac1ACT), in assay [1] (Rac1WT), in assay [2] (RhoACT) and in assay [2] (RhoWT) was “inactive” throughout. Further, the EC50 in assay [3] (Cdc42ACT) is 14.7 µM; in assay [3] (Cdc42WT), 15.3 µM.
In the case of `COc1ccc(-c2cc(CCC(=O)N3CCN(c4cc(C)ccc4C)CC3)[nH]n2)cc1`, the “GTP binding remaining (% of DMSO)” value in assay [1] (Rac1ACT), in assay [1] (Rac1WT), in assay [2] (RhoACT), in assay [2] (RhoWT), in assay [3] (Cdc42ACT) and in assay [3] (Cdc42WT) was “inactive” throughout.
In the case of `COc1ccc(C2CC(c3ccc(C(F)(F)F)cc3)=NN2c2ccc(S(N)(=O)=O)cc2)cc1` (configuration not stated), the “GTP binding remaining (% of DMSO)” value in assay [1] (Rac1ACT), in assay [1] (Rac1WT), in assay [2] (RhoACT), in assay [2] (RhoWT), in assay [3] (Cdc42ACT) and in assay [3] (Cdc42WT) was “inactive” in each case.
In the case of `COc1ccc(C2CC(C(C)(C)C)=NN2c2ccc(S(N)(=O)=O)cc2)cc1` (configuration not stated), the EC50 entry in assay [1] (Rac1ACT) was “inactive”. Besides, the “GTP binding remaining (% of DMSO)” value in assay [1] (Rac1WT), in assay [2] (RhoACT) and in assay [2] (RhoWT) was “inactive” throughout. The values for the EC50 in assay [3] (Cdc42ACT) and in assay [3] (Cdc42WT) were 16.4 µM and 14.4 µM, respectively.
In the case of `COc1ccc(C2CC(c3ccc(N(C)C)cc3)=NN2c2ccc(S(N)(=O)=O)cc2)cc1` (configuration not stated), the “GTP binding remaining (% of DMSO)” value in assay [1] (Rac1ACT), in assay [1] (Rac1WT), in assay [2] (RhoACT), in assay [2] (RhoWT), in assay [3] (Cdc42ACT) and in assay [3] (Cdc42WT) was “inactive” throughout.
Consider `COc1ccc(C2CC(c3ccccc3OC)=NN2c2ccc(S(N)(=O)=O)cc2)cc1` (configuration not stated), for which the “GTP binding remaining (% of DMSO)” value in assay [1] (Rac1ACT), in assay [1] (Rac1WT), in assay [2] (RhoACT) and in assay [2] (RhoWT) was “inactive” each time. Also, the EC50 in assay [3] (Cdc42ACT) is 5.28 µM; in assay [3] (Cdc42WT), 5.66 µM.
With `NS(=O)(=O)c1ccc(N2N=C(c3ccccc3)CC2c2ccccc2Cl)cc1` (configuration not stated), the “GTP binding remaining (% of DMSO)” value in assay [1] (Rac1ACT), in assay [1] (Rac1WT), in assay [2] (RhoACT), in assay [2] (RhoWT) and in assay [3] (Cdc42ACT) was “inactive” each time. In addition, the EC50 result in assay [3] (Cdc42WT) was “inactive”.
In the case of `COc1ccc(-c2cc(CCC(=O)N3CCN(c4cc(C)ccc4C)CC3)on2)cc1`, the “GTP binding remaining (% of DMSO)” value in assay [1] (Rac1ACT) and in assay [2] (RhoACT) was “inactive” each time. The EC50 in assay [1] (Rac1WT) is 2.76 µM; in assay [2] (RhoWT) it was 1.3 µM; in assay [3] (Cdc42ACT) it was 2.78 µM; in assay [3] (Cdc42WT) it was 0.97 µM.
For `COc1ccc(C2CC(c3ccccc3)=NN2c2ccc(S(N)(=O)=O)cc2)cc1` (configuration not stated), the EC50 result in assay [1] (Rac1ACT) is “inactive”. Moreover, the “GTP binding remaining (% of DMSO)” value in assay [1] (Rac1WT), in assay [2] (RhoACT) and in assay [2] (RhoWT) was “inactive” throughout. The EC50 in assay [3] (Cdc42ACT) is 2.73 µM; in assay [3] (Cdc42WT), 2.5 µM.
Take `Cc1cccc(C2CC(c3ccccc3)=NN2c2ccc(S(N)(=O)=O)cc2)c1` (configuration not stated): the “GTP binding remaining (% of DMSO)” value in assay [1] (Rac1ACT), in assay [1] (Rac1WT), in assay [2] (RhoACT) and in assay [2] (RhoWT) was “inactive” each time. Besides, the values for the EC50 in assay [3] (Cdc42ACT) and in assay [3] (Cdc42WT) were 8.35 µM and 7.7 µM, respectively.
Regarding `COc1ccc(-c2noc(CCC(=O)N3CCC(c4cc(C)ccc4C)CC3)n2)cc1`, the “GTP binding remaining (% of DMSO)” value in assay [1] (Rac1ACT), in assay [2] (RhoACT), in assay [3] (Cdc42ACT) and in assay [3] (Cdc42WT) was “inactive” each time. Moreover, in assay [1] (Rac1WT), the EC50 is 11.9 µM. For the same compound, in assay [2] (RhoWT), the EC50 entry is “inactive”.
Take `COc1ccc(-c2ccc(CCC(=O)N3CCN(c4cc(C)ccc4C)CC3)s2)cc1`: the “GTP binding remaining (% of DMSO)” value in assay [1] (Rac1ACT), in assay [1] (Rac1WT), in assay [2] (RhoACT), in assay [2] (RhoWT), in assay [3] (Cdc42ACT) and in assay [3] (Cdc42WT) was “inactive” in each case.
Regarding `COc1ccc(C2CC(C)=NN2c2ccc(S(N)(=O)=O)cc2)cc1` (configuration not stated), the EC50 result in assay [1] (Rac1ACT) is “inactive”. Moreover, the “GTP binding remaining (% of DMSO)” value in assay [1] (Rac1WT), in assay [2] (RhoACT), in assay [2] (RhoWT), in assay [3] (Cdc42ACT) and in assay [3] (Cdc42WT) was “inactive” throughout.
Turning to `COc1ccc(C2CC(c3ccc(C)cc3)=NN2c2ccc(S(N)(=O)=O)cc2)cc1` (configuration not stated), the “GTP binding remaining (% of DMSO)” value in assay [1] (Rac1ACT), in assay [1] (Rac1WT), in assay [2] (RhoACT) and in assay [2] (RhoWT) was “inactive” throughout. Also, the EC50 result in assay [3] (Cdc42ACT) and in assay [3] (Cdc42WT) was “inactive” each time.
Take `COc1ccc(C2CC(c3ccccc3C)=NN2c2ccc(S(N)(=O)=O)cc2)cc1` (configuration not stated): the “GTP binding remaining (% of DMSO)” value in assay [1] (Rac1ACT), in assay [1] (Rac1WT), in assay [2] (RhoACT), in assay [2] (RhoWT), in assay [3] (Cdc42ACT) and in assay [3] (Cdc42WT) was “inactive” each time.
Regarding `COc1ccc(C2CC(c3cccs3)=NN2c2ccc(S(N)(=O)=O)cc2)cc1` (configuration not stated), the “GTP binding remaining (% of DMSO)” value in assay [1] (Rac1ACT), in assay [1] (Rac1WT), in assay [2] (RhoACT) and in assay [2] (RhoWT) was “inactive” in each case. Also, the results for the EC50 in assay [3] (Cdc42ACT) and in assay [3] (Cdc42WT) were 4.28 µM and 4.08 µM, respectively.
Consider `COc1ccc(-c2noc(CCC(=O)N3CCN(c4cc(C)ccc4C)CC3)n2)cc1`, for which, in assay [1] (Rac1ACT), the “GTP binding remaining (% of DMSO)” value was “inactive”. Further, in assay [1] (Rac1WT), the EC50 was 2.37 µM. The EC50 entry in assay [2] (RhoACT), in assay [2] (RhoWT), in assay [3] (Cdc42ACT) and in assay [3] (Cdc42WT) was “inactive” throughout.
In the case of `COc1ccc(C2CC(c3ccsc3)=NN2c2ccc(S(N)(=O)=O)cc2)cc1` (configuration not stated), the “GTP binding remaining (% of DMSO)” value in assay [1] (Rac1ACT), in assay [2] (RhoACT) and in assay [2] (RhoWT) was “inactive” each time. In addition, the EC50 entry in assay [1] (Rac1WT) was “inactive”. In addition, the EC50 in assay [3] (Cdc42ACT) was 5.22 µM; in assay [3] (Cdc42WT), 5.19 µM.
Regarding `COc1ccc(-c2ccc(CCC(=O)N3CCN(c4cc(C)ccc4C)CC3)o2)cc1`, the “GTP binding remaining (% of DMSO)” value in assay [1] (Rac1ACT), in assay [1] (Rac1WT), in assay [2] (RhoACT), in assay [2] (RhoWT), in assay [3] (Cdc42ACT) and in assay [3] (Cdc42WT) was “inactive” in each case.
`COc1ccc(C2CC(c3cccc(C)c3)=NN2c2ccc(S(N)(=O)=O)cc2)cc1` (configuration not stated): the EC50 result in assay [1] (Rac1ACT) is “inactive”. Further, the “GTP binding remaining (% of DMSO)” value in assay [1] (Rac1WT), in assay [2] (RhoACT) and in assay [2] (RhoWT) was “inactive” throughout. For the same compound, the EC50 is 1.85 µM in assay [3] (Cdc42ACT) and 2.11 µM in assay [3] (Cdc42WT).
For the compound `NS(=O)(=O)c1ccc(N2N=C(c3ccccc3)CC2c2ccc(Cl)cc2)cc1` (configuration not stated), the “GTP binding remaining (% of DMSO)” value in assay [1] (Rac1ACT), in assay [2] (RhoACT) and in assay [2] (RhoWT) was “inactive” throughout. Further, in assay [1] (Rac1WT), the EC50 entry is “inactive”. Besides, the EC50 in assay [3] (Cdc42ACT) is 4.22 µM; in assay [3] (Cdc42WT) it was 3.94 µM.

In general, EC50 refers to the midpoint of the concentration-response curve.
